Laboratory results as given in US20260234107A1, “TRYPTAMINES AND METHODS OF TREATING MOOD DISORDERS” (priority 2022, published 2026).
Like-named read-outs stand apart in the source and are kept apart here.

How the values were obtained:
[1] = Metabolic stability in human liver microsomes (HLM); set-up: microsomal CLint / half-life: dose or concentration left out as unconfirmed; details: for half-life / microsomal CLint: both, human, pooled human liver microsomes, pH 7.4
[2] = Plasma pharmacokinetics in rats after intravenous administration; details: for AUC(0-t) / C0 / half-life: male, Sprague Dawley, rat, plasma, iv, 1 mg/kg; for plasma half-life (in words): rats, IV 1 mg/kg
[3] = Stability in mouse brain homogenate; assay type: in vitro ADME, male CD-1 mice; details: mouse brain homogenate, 1 μM, 37° C.; for half-life at 1 µM: male, CD-1
Method: Disclosed compounds were tested for stability in mouse brain homogenate (Table 7). There was widely variable stability among the test compounds under the conditions of the experiment.
(§1) Mouse Brain Homogenate Stability. Frozen mouse brain homogenate (pooled from male CD-1 mice, BioreclamationIVT, MSE00BRAINMZA) was thawed in a water bath at 37° C. immediately prior to use. Positive controls and test compounds (final concentration in incubation medium=1 μM for test compounds and 2 μM for controls, all with 2% DMSO) were incubated in duplicate for each time point (0, 10, 30, 60, and 120 min) in the mouse brain homogenate at a total reaction volume of 100 μL at 37° C. At the end of each incubation period, reactions were immediately quenched with 400 μL of acetonitrile containing internal standard (200 ng/mL tolbutamine and 200 ng/mL labetalol) and mixed thoroughly. Plates were then sealed, shaken for 20 min, and centrifuged at 4,000 rpm and 4° C. for 20 min. Aliquots of 50 μL of each supernatant were diluted into 100 μL of water and the mixtures were then shaken again for 10 min.

[4] = Stability in rat brain homogenate; assay type: in vitro ADME, male Sprague Dawley rats; details: rat brain homogenate, 1 μM, 37° C.; for half-life at 1 µM: male, Sprague Dawley
Method: Disclosed compounds were tested for stability in rat brain homogenate (Table 8). There was widely variable stability among the test compounds under the conditions of the experiment.
as §1, with “Rat” for “Mouse”, “rat” for “mouse”, “Sprague Dawley rats,” for “CD-1 mice,”, “RAT00BRAINMZA)” for “MSE00BRAINMZA)”

[5] = tested on: monoamine oxidase A and B (MAO-A and MAO-B); test: Stability in the presence of monoamine oxidases (human liver mitochondria preparation); set-up: half-life / microsomal CLint: dose or concentration left out as unconfirmed; details: for stability in the presence of MAO (in words): human liver mitochondria preparation; for Remaining (t = 60 min) / half-life / microsomal CLint: human liver mitochondria; for half-life / microsomal CLint: human, pH 7.4; for CLint(MAO) / t1/2: human liver mitochondria 0.30 mg protein/mL, 37° C.
Method: Liver Mitochondria Incubations. Human liver mitochondria (Xenotech H0610.M) were used.

[6] = tested on: rat synaptosomes; test: Serotonin (5-HT) release from rat synaptosomes; assay type: biochemical, Male Sprague-Dawley rats; details: for EC50: rat synaptosomes preloaded with [3H]5-HT; for % Release @ Max Dose (10 μM): rat synaptosomes
Method: Disclosed compounds were assessed for their ability to release serotonin (5-HT) from […] (Table 9). Potency and efficacy for 5-HT release varied substantially depending on the specific compound. […] However, there was also substantial variability among 4-hydroxy compounds.
Synaptosome 5-HT Release Assay. Synaptosome release assays were conducted according to modifications of previously described procedures (Partilla et al. (2016). Interrogating the Activity of Ligands at Monoamine Transporters in Rat Brain Synaptosomes. In Neurotransmitter Transporters (pp. 41-52). Springer.). Briefly, synaptosomes were prepared from rat brains. Male Sprague-Dawley rats were rendered unconscious with CO2 and their brains were immediately removed. The cerebella were discarded and the whole brains (minus striatum) were placed in ice-cold 0.32 M sucrose (10 mL per brain) and gently homogenized by hand. The homogenate of each brain was centrifuged at 1,000×g at 4° C. for 10 mins and the resulting supernatant was diluted with ice-cold 0.32 M sucrose to a total volume of 10 mL to provide the synaptosome solution. Synaptosomes were then preloaded with 5 nM [^3H]5-HT in the presence of selective uptake inhibitors of DAT (50 nM GBR12935), NET (100 nM nomifensine), and VMAT2 (1 μM reserpine) in Krebs phosphate buffer (KPB). The incubations were allowed to reach equilibrium for 2 h at 25° C. For the release reactions, 425 μL of preloaded synaptosomes were added to test tubes containing 75 μL of test drugs diluted in KPB containing 1 mg/mL BSA. After 10 mins, the release reaction was stopped using a cell harvester by rapid vacuum filtration over GF/B filter paper presoaked in wash buffer (10 mM Tris-HCl, pH 7.4, 150 mM NaCl) and the filters were washed with additional wash buffer. Filters were dried for 1 h at 60° C. and retained radioactivity was quantified using a MicroBeta 2 liquid scintillation counter. The amount of retained radioactivity was inversely proportional to the extent of release.

[7] = Plasma pharmacokinetics in mice after subcutaneous administration; assay type: in vivo, male C57BL/6 mice; details: plasma, male C57BL/6 mice, SC 10 mg/kg
From the text: Animals. […] Four mice were housed in each cage. […] All animals were provided laboratory rodent diet. […] Animals were randomly assigned to treatment groups.

[8] = biological target: T1, 5-HT2C receptor (Homo sapiens, UniProt P28335); test: cell-based; assay type: cell-based; details: Ca2+ flux
T1 sequence (P28335 33-458): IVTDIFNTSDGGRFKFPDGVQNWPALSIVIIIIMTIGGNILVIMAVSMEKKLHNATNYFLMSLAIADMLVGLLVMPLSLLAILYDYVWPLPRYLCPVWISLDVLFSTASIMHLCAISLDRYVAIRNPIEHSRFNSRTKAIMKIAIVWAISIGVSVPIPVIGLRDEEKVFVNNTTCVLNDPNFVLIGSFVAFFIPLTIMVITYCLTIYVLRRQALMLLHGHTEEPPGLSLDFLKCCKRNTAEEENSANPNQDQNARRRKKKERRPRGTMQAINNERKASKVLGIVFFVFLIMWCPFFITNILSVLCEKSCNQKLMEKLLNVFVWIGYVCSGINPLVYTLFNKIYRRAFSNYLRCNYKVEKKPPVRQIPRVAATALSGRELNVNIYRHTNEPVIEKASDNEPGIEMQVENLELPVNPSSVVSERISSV

[9] = biological target: T2, 5-HT2B (Homo sapiens, UniProt P41595); test: FLIPR Ca2+ flux agonist assay at 5-HT2B; assay type: cell-based; details: Ca2+ flux; for 5-HT2B % Act @ Max Dose: HEK293, max dose
T2 construct: host or cells: HEK293
Method: (§2) A solution of 250 mM probenecid in 1 mL FLIPR assay buffer was prepared fresh. This was combined with a fluorescent dye (Fluo-4 Direct™) to make a final assay concentration of 2.5 mM. […] The fluorescent dye was then added to the assay plate along with assay buffer to a final volume of 40 μL. The cell plate was incubated for 50 min at 37° C. and 5% CO2 and placed into the FLIPR Tetra along with the compound plate. 10 μL of references and compounds were then transferred from the compound plate into the cell plate and the fluorescent signal was read.

[10] = biological target: T3, 5-HT1A (Homo sapiens, UniProt P08908); test: FLIPR Ca2+ flux agonist assay at 5-HT1A; assay type: cell-based
T3 construct: host or cells: CHO cells
T3 sequence (P08908 1-422): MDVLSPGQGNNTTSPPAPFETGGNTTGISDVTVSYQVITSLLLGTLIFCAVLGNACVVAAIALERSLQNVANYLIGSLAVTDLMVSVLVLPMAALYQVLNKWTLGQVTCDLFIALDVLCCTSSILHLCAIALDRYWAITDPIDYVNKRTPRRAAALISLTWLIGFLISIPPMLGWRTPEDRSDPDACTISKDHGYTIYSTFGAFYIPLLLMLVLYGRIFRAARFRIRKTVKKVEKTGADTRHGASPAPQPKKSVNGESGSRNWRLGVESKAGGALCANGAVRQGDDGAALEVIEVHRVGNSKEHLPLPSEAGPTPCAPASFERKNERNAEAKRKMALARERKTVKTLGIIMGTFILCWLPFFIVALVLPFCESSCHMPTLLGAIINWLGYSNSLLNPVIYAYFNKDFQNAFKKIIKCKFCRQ
Method: as §2

[11] = biological target: T4, 5-HT2A (Homo sapiens, UniProt P28223); test: FLIPR Ca2+ flux agonist assay at 5-HT2A; assay type: cell-based; set-up: host or cells: HEK293; details: Ca2+ flux, HEK293; read-out: 5-HT2A EC50
Method: as §2

[12] = biological target: T4, 5-HT2A; test: 5-HT2A receptor radioligand binding ([3H]ketanserin)
Method: The binding affinities of disclosed compounds at the ketanserin binding site of the 5-HT2A receptor were determined in radioligand binding experiments.
Method. Affinity of the test compounds for the 5-HT2A receptor was determined in radioligand binding experiments with [^3H]ketanserin by WuXi AppTec (Hong Kong) Limited, using methods adapted from the literature and under conditions described in Table 4.

[13] = HLM 0.50 mg protein/mL, NADPH, 37° C., 60 minutes

T2 sequence (P41595 whole entry, species assumed): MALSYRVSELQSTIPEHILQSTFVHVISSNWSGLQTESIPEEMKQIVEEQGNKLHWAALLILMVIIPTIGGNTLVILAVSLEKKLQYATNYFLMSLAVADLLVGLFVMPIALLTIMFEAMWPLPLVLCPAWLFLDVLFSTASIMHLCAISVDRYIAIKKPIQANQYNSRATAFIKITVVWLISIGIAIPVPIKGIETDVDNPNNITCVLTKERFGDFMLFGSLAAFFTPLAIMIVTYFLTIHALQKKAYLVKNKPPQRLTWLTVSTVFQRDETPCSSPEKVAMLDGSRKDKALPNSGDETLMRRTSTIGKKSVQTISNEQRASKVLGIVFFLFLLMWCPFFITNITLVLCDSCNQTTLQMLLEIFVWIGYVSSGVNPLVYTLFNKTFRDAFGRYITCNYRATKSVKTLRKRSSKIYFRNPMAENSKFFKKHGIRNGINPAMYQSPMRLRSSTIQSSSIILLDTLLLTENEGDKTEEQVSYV
T4 sequence (P28223 whole entry): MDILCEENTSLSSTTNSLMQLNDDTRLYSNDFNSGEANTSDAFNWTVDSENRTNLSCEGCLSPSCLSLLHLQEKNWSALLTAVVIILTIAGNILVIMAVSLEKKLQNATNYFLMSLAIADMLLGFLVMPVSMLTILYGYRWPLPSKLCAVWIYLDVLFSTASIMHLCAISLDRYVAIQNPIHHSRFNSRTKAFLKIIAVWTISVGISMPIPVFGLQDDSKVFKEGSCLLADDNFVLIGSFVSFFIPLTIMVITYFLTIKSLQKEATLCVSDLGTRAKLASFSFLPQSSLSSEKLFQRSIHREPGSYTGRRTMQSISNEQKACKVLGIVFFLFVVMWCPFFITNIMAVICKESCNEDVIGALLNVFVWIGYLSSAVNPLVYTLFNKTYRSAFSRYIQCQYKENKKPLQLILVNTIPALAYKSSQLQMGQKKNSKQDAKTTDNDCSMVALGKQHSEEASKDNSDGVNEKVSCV

Structure (SMILES) | half-life [1] [h] | microsomal CLint [1] [µL/min/mg] | AUC(0-t) [2] [ng·h/mL] | C0 [2] [ng/mL] | half-life [2] [h] | plasma half-life (in words) [2] | half-life at 1 µM [3] [h] | % Compound Remaining (after 120 min) [3] [%] | half-life at 1 µM [4] [h] | % Compound Remaining (after 120 min) [4] [%] | stability in the presence of MAO (in words) [5] | Remaining (t = 60 min) [5] [%] | half-life [5] [h] | EC50 [6] [nM] | % Release @ Max Dose (10 μM) [6] [%] | EC50 [8] [nM] | 5-HT2B % Act @ Max Dose [9] [%] | CLint(MAO) [5] [µL/min/mg] | t1/2 [5] [h] | 5-HT1A % Act @ Max Dose ([10]; Ca2+ flux, CHO cells) [%] | further results
CNCCc1c[nH]c2cccc(O)c12 [Compound 2, 3-(2-(methylamino)ethyl)-1H-indol-4-ol] | 0.22 | 105 | 21 | 185 | 0.18 | very short half-lives | 0.233 | 0.2 | 0.105 | 0.2 | highly unstable | 12.8 | 0.312 |  |  |  |  |  |  |  | microsomal CLint [5]: 124 µL/min/mg
CCN(C)CCc1c[nH]c2cccc(O)c12 [Compound 4-HO-MET, reference compound] |  |  |  |  |  |  |  | 16.7 |  | 20.9 | stable | 112.3 |  | 496 | 56.9 | 37.8 | 1.1 | <15.9 | >2.42 |  | Clint [1, 13]: <9.6 µL/min/mg; t1/2 [1, 13]: >2.42 h; t1/2 [3]: 0.763 h; t1/2 [4]: 0.883 h; AUC(0-t) ([7]; mouse): 1410 ng·h/mL; Cmax ([7]; mouse): 1160 ng/mL; Tmax [7]: 4.8 min; t1/2 [7]: 1.1 h; 5-HT2C % Act @ Max Dose [8]: 95.0%
CCNCCc1c[nH]c2cccc(O)c12 [Compound 5, 3-(2-(ethylamino)ethyl)-1H-indol-4-ol] | > 2.42 | < 9.6 | 161 | 350 | 0.65 |  | 3.06 | 67.2 | 2.63 | 61.5 |  | 76.2 | > 2.42 | 4060 | 53.8 |  |  |  |  |  | microsomal CLint [5]: < 15.9 µL/min/mg
CCCN(CC)CCc1c[nH]c2ccccc12 [EPT, N-ethyl-N-propyltryptamine, reference compound] |  |  |  |  |  |  |  |  |  |  | more stable | 95.1 |  | 264 | 45.02 | 33.4 | 80.4 | <15.9 | >2.42 | 75.5 | EC50 ([10]; Ca2+ flux, CHO cells, ND = not determined due to lack of measurable agonism, read-out: 5-HT1A EC50): 88700 nM; EC50 [11]: 30.5 nM; 5-HT2C % Act @ Max Dose [8]: 90.8%; EC50 ([9]; HEK293, ND = not determined due to lack of measurable agonism, read-out: 5-HT2B EC50): 40.3 nM
CCN(C)CCc1c[nH]c2ccccc12 [MET, N-methyl-N-ethyltryptamine, reference compound] |  |  |  |  |  |  |  |  |  |  | more stable | 84.5 |  | 183 | 71.00 | 28.3 | 11.9 | <15.9 | >2.42 | 71.4 | EC50 [10]: 57900 nM; EC50 [11]: 17.1 nM; Ki [12]: 128 nM
CN(C)CCc1c[nH]c2cccc(O)c12 [Psilocin, psilocin, reference compound] |  |  | 146 | 179 | 1.56 | much longer half-lives |  | 97.6 |  | 46.1 | stable | 112.1 |  |  |  |  |  | <15.9 | >2.42 | 0.720 | t1/2 [3]: >4.818 h; t1/2 [4]: 1.913 h
